As usually defined, the IC50 is the midpoint of a concentration-inhibition curve. A low value points to higher potency.

Drawing on BindingDB's records for doi:10.1021/jm00083a023 (Warner-Lambert, 1992), this text covers IC50 for one compound.

This experiment can be described thus: Compound was evaluated for the inhibition of serum-opsonized zymosan stimulated myeloperoxidase release from human neutrophil.

In turn, `COc1ccc2sc(C(=O)Nc3nnn[nH]3)c(OC(C)C)c2c1` came in with an IC50 of 7.5 µM.
